Data: patent US7615527B2, “Peptides which modulate blood coagulation and methods of use thereof” (Oregon Health & Science University, priority 2001, dated 2009)
Square brackets hold non-standard residues; d marks the D form. Ends that are not written are not given here. Peptide text beside a SMILES is read from it. pY = N[C@@H](Cc1ccc(OP(=O)(O)O)cc1)C(=O)O

Tests used:
[1] = target: T1, α-thrombin (Homo sapiens, UniProt P00734); experiment: Competitive binding assay: α-thrombin binding to fluoresceinated γ′ 408-427 peptide; set-up: incubating 2 nM fluoresceinated peptide with 2 μM α-thrombin; thrombin: gift of Dr. John Fenton, II and Dr. Walter Kisiel; tracer peptide: Research Genetics; settings: 2 nM fluoresceinated peptide with 2 μM α-thrombin
Excerpt: Proteins, Peptides, and DNA Aptamers. Human α-thrombin was generously provided by Dr. John Fenton, II (New York State Department of Health, Albany, N.Y.) and Dr. Walter Kisiel (University of New Mexico, Albuquerque, N. Mex.). Human γ-thrombin was obtained from Haematologic Technologies, Inc. (Essex Junction, Vt.). Tyrosine-phosphorylated derivatives of peptides corresponding to the γ′ chain carboxyl terminus, […] (SEQ ID NO: 11), were obtained from Research Genetics, Inc. (Huntsville, Ala.) and GeneMed Synthesis, Inc. (South San Francisco, Calif.). The peptides were purified to >95% purity by HPLC, and their molecular weights were verified by mass spectrometry. Tyrosine-sulfated, amino-terminal acetylated hirudin peptide 53-65 was obtained from Bachem, Inc. (Torrance, Calif.) and tyrosine-sulfated hirudin peptide 54-65 was obtained from Sigma (St. Louis, Mo.). Single-stranded DNA aptamers 5′-GGT-TGG-TGT-GGT-TGG-3′ (SEQ ID NO: 5), referred to as HD1, and 5′-AGT-CCG-TGG-TAG-GGC-AGG-TTG-GGG-TGA-CT-3′ (SEQ ID NO: 6), referred to as HD22, were generously provided by Dr. Jeffrey I. Weitz (McMaster University, Hamilton, ONT, Canada). A monoclonal antibody directed against thrombin exosite II (34) was a gift from Dr. Douglas M. Tollefsen (Washington University, St. Louis, Mo.). Production of Recombinant Fibrinogens Recombinant fibrinogen molecules were expressed with tyrosine to phenylalanine mutations in the γ′ chain at positions γ′ 418 and/or γ′ 422. Plasmid pAG-γ′ (10) was used as the template for site-directed mutagenesis (35) using the primer GAA-ACA-GAA-TTT-GAC-TCA-CTT (SEQ ID NO: 7) for Y418F, GAC-TCA-CTT-TTC-CCT-GAG-GAT (SEQ ID NO: 8) for Y422F, and GAA-ACA-GAA-TTT-GAC-TCA-CTT-TTC-CCT-GAG-GAT (SEQ ID NO: 9) for Y418F/Y422F. The mutated pAG-γ′ plasmids were co-transfected with pBD-1 into a baby hamster kidney cell line as described previously (10). Recombinant fibrinogens were labeled with 1 mCi/ml ^35SO4 in serum-free medium and immunoprecipitated from the medium using a rabbit polyclonal anti-fibrinogen antiserum (Accurate Chemical and Scientific Corp., Westbury, N.Y.) as described previously (10). The amount of fibrinogen secreted during the labeling was determined using an ELISA described previously (10). Identical amounts of radiolabeled fibrinogens (300 ng) were resolved by SDS-polyacrylamide gel electrophoresis on 10% gels under reducing conditions (36) and exposed to X-ray film. Thrombin/γ′ Peptide Binding Assay. To quantitate the binding of thrombin to the γ′ chain carboxyl terminus, 50 nM […]-Y (PO3)-DSL-Y (PO3)—PEDDL (SEQ ID NO: 10) peptide (Research Genetics), corresponding to the carboxyl terminal twenty amino acids of the γ′ chain, was labeled for 1 hour at 37° C. with a 5-fold molar excess of fluorescein succinimidyl ester (PanVera) in 100 mM potassium phosphate, pH 7.0 as per the manufacturer's protocol. Unreacted fluorescein succinimidyl ester was reacted with 100 mM Tris, pH 8.0 for 30 minutes and removed by desalting the fluoresceinated peptide on Sephadex G-15 in 137 mM NaCl/2.7 mM KCl/10 mM HEPES, pH 7.4. 2 nM fluoresceinated peptide was incubated with the indicated concentrations of thrombin for 30 seconds at 22° C. in 50 μg/ml BSA/137 mM NaCl/2.7 mM KCl/10 mM HEPES, pH 7.4. Fluorescence polarization was measured following excitation at 488 nm and emission at 535 nm. The data are fit to the equation: y=x/(b+x) where y is fit to x, using “x” as the concentration of thrombin and “b” as the Kd.
Competitive binding assays were performed by incubating 2 nM fluoresceinated peptide with 2 μM α-thrombin in the presence of the indicated concentrations of competing ligand. Fluorescence polarization was measured following excitation at 488 nm and emission at 535 nm.

[2] = test system: normal human reference plasma; experiment: Activated partial thromboplastin time (aPTT) assay in human plasma; format: biochemical; settings: human plasma; 0-1 mM peptide
Protocol: Activated Partial Thromboplastin Time (aPTT) Assay. This anti-coagulation assay was chosen for testing the γ′ peptides due to its sensitivity to heparin-like compounds, its ease of use, and the ability to automate the procedure. An MLA 1600 instrument (Organon Teknika) was used to quantitate the effect of the γ′ peptides on the aPTT, using the manufacturer's protocol. Briefly, 0-1 mM γ′ peptides or 0-10 units/ml unfractionated heparin was added to 50 μl of normal reference plasma (Ortho) and manually loaded into the MLA 1600. The MLA 1600 added SynthASil aPTT reagent (Ortho) to initiate clotting, and clot formation was monitored spectrophotometrically for 106 seconds. […] Prothrombin Time/International Normalized Ratio Assay. This clotting assay is less sensitive to heparin than the aPTT, and may be used to determine if a γ′ peptide is capable of prolonging the prothrombin time (PT) to the same extent as the 3 aPTT. One-stage PT assays may be performed using an MLA 1600 instrument according to the manufacturer's protocol. Briefly, 0-1 mM γ′ peptide or scrambled peptide or 0-10 units/ml unfractionated heparin may be added to 50 μl of normal reference plasma (Ortho) and manually loaded into the MLA 1600. The MLA 1600 may be used to add recombinant thromboplastin (Recombiplastin, Ortho) to initiate clotting, and clot formation monitored spectrophotometrically for 106 seconds. If a clot is not generated within 106 seconds, the MLA will automatically extend the observation time to 212 seconds.
An aPTT assay was performed using human plasma to determine the effect of γ′ peptide on the clotting time in this system. […] The MLA 1600 added SynthASil aPTT reagent (Ortho) to initiate clotting and clot formation was monitored spectrophotometrically for 106 seconds. […]
An aPTT assay was performed using human plasma to determine the effect of γ′ deletion peptides on the clotting time in this system. […] The MLA 1600 added SynthASil aPTT reagent (Ortho) to initiate clotting and clot formation was monitored spectrophotometrically for 106 seconds. […]

[3] = target: T1, α-thrombin; experiment: Thrombin inhibition assay (ATIII, with or without heparin, Chromozym TH); format: biochemical; set-up: incubating 2 nM fluoresceinated peptide with 2 μM α-thrombin; thrombin: gift of Dr. John Fenton, II and Dr. Walter Kisiel; tracer peptide: Research Genetics
Protocol: Thrombin Inhibition Assay. […] In some experiments, 0.33 μM heparin (Sigma) was included in the reaction. The inhibition reaction was terminated by the addition of 0.3 ml of a vast molar excess of substrate, 1.25 mg/ml Chromozym TH (Boehringer Mannheim, Indianapolis, Ind.), and the remaining thrombin activity was subsequently measured by monitoring the absorbance at 405 nm for 15 minutes at 22° C. Results Two Tyrosine Residues in the γ′ Chain Are Sulfated. […] Since the γ′ chain differs from the γA chain only in its carboxyl terminal 20 amino acids, it has been assumed that the sulfated residues are within this 20 amino acid sequence, although the addition of the γ′ sequence could also induce conformational changes in the γ chain that expose new sites for sulfation upstream of the carboxyl terminus. […] The carboxyl terminus of the γ′ chain contains two potential sites for tyrosine sulfation at positions γ′ Y418 and γ′ Y422. […] However, no direct evidence of sulfation at γ′ Y418 or γ′ Y422 was presented. Furthermore, in both bovine and rat fibrinogen, the γ′ chain terminates at the equivalent of γ′ 420, prior to γ′ Y422 (37, 38). The rat γ′ chain does, however, contain sulfotyrosine (39). […]

[4] = target: T1, α-thrombin; experiment: Thrombin/γ′ peptide binding assay (fluorescence polarization); set-up: Human α-thrombin; gift: Dr. John Fenton, II (New York State Department of Health) and Dr. Walter Kisiel (University of New Mexico); settings: 2 nM fluoresceinated peptide, 22° C., pH 7.4, read-out: Kd, binding of α-thrombin to fluoresceinated γ′ 408-427 peptide
Excerpt: Proteins, Peptides, and DNA Aptamers. Human α-thrombin was generously provided by Dr. John Fenton, II (New York State Department of Health, Albany, N.Y.) and Dr. Walter Kisiel (University of New Mexico, Albuquerque, N. Mex.). Human γ-thrombin was obtained from Haematologic Technologies, Inc. (Essex Junction, Vt.). Tyrosine-phosphorylated derivatives of peptides corresponding to the γ′ chain carboxyl terminus, […] (SEQ ID NO: 11), were obtained from Research Genetics, Inc. (Huntsville, Ala.) and GeneMed Synthesis, Inc. (South San Francisco, Calif.). The peptides were purified to >95% purity by HPLC, and their molecular weights were verified by mass spectrometry. […] The amount of fibrinogen secreted during the labeling was determined using an ELISA described previously (10). […] To quantitate the binding of thrombin to the γ′ chain carboxyl terminus, 50 nM […]-Y (PO3)-DSL-Y (PO3)—PEDDL (SEQ ID NO: 10) peptide (Research Genetics), corresponding to the carboxyl terminal twenty amino acids of the γ′ chain, was labeled for 1 hour at 37° C. with a 5-fold molar excess of fluorescein succinimidyl ester (PanVera) in 100 mM potassium phosphate, pH 7.0 as per the manufacturer's protocol. […] Fluorescence polarization was measured following excitation at 488 nm and emission at 535 nm. […]

[5] = target: thrombin (Homo sapiens, UniProt P00734); settings: prior studies by others (43); read-out: Ki, direct inhibitory activity towards thrombin; cited from earlier work

| Molecule | Inhibition of α-thrombin binding to fluoresceinated γ′ 408-427 peptide (in words) [1] | Anticoagulant effect in aPTT (in words) [2] | further results |
| --- | --- | --- | --- |
| 5′-AGT-CCG-TGG-TAG-GGC-AGG-TTG-GGG-TGA-CT-3′ [HD22, reference compound] | more potent competitor than HD1 | – | – |
| EY(*)DSLY(*)PEDDL (EYDSLYPEDDL; not fully specified (residues 2, 6); printed as EY(*)DSLY(*)PEDDL) [peptide 417-427] | completely inactive | further reduction in activity | – |
| AETEY(*)DSLY(*)PEDDL (AETEYDSLYPEDDL; not fully specified (residues 5, 9); printed as AETEY(*)DSLY(*)PEDDL) [peptide 414-427] | lower affinity | reduced level of anticoagulant activity | – |
| VRPEHPAETEY(*)DSLY(*)PE (VRPEHPAETEYDSLYPE; not fully specified (residues 11, 15); printed as VRPEHPAETEY(*)DSLY(*)PE) [peptide 408-424] | lower affinity | – | – |
| CC(C)C[C@H](NC(=O)[C@H](CC(=O)O)NC(=O)[C@H](CC(=O)O)NC(=O)[C@H](CCC(=O)O)NC(=O)[C@@H]1CCCN1C(=O)[C@H](Cc1ccc(OP(=O)(O)O)cc1)NC(=O)[C@H](CC(C)C)NC(=O)[C@H](CO)NC(=O)[C@H](CC(=O)O)NC(=O)[C@H](Cc1ccc(OP(=O)(O)O)cc1)NC(=O)[C@H](CCC(=O)O)NC(=O)[C@@H](NC(=O)[C@H](CCC(=O)O)NC(=O)[C@H](C)NC(=O)[C@@H]1CCCN1C(=O)[C@H](Cc1c[nH]cn1)NC(=O)[C@H](CCC(=O)O)NC(=O)[C@@H]1CCCN1C(=O)[C@H](CCCNC(=N)N)NC(=O)[C@@H](N)C(C)C)[C@@H](C)O)C(=O)O [γ′ 408-427] (H-VRPEHPAETE[pY]DSL[pY]PEDDL-OH; N-terminus and C-terminus assumed) | – | – | Ki ([1]; read-out: Ki, competition for α-thrombin binding to fluoresceinated γ′ 408-427 peptide): 520 ± 140 nM; Effect on heparin's acceleration of thrombin inhibition by ATIII ([3]; 0.33 μM heparin, 13.7 nM ATIII, 0-1.0 mM γ′ peptide, 15 minutes): antagonized the accelerative activity of heparin in a dose-dependent manner; Direct inhibition of thrombin ([3]; concentrations up to 1 mM, data not shown): not directly inhibitory; Kd [4]: 430 ± 80 nM |
| VRPEHPAETEYDSLYPEDDL [nonphosphorylated peptide] | completely inactive | – | Ki [5]: 130000 nM |
